The test system of the experiment is double-stranded DNA. Description: Alkylation and cleavage of double-stranded DNA by ImPyLDu86 (gel, cleavage bands by heating). In kind it is biochemical. As to conditions: cleavage mainly at site 1 and site 2, bands after heating, FIG. 1. As to the method:
Reactivities of thus synthesized PyPyLDu86 and ImPyLDu86 with DNA were determined.
Locations of alkylation can be observed as cleavage bands by heating. As a result, the double-stranded DNA was cleaved mainly at the site 1 and the site 2 from a low concentration, and it was understood that the alkylation occurred simultaneously in the double-stranded DNA. No compound to generate such a cleavage has been known until now, and it can be surely regarded as an artificial restriction enzyme.

The text below walks through data of patent US7378237B2, “Development of method for screening physiologically active pyrrole imidazole derivative” (Japan Science & Technology Corporation, priority 1999, dated 2008).

In the case of `COC(=O)c1c(C)[nH]c2c1C13CC1CN(C(=O)/C=C/c1cc(NC(=O)c4nc(NC(C)=O)cn4C)cn1C)C3=CC2=O` (stereo not shown) [ImPyLDu86], the “ratio of cleavage of double-stranded DNA” value is on record as 70%.
